In US20230104936A1, “TRPML MODULATORS” (Casma Therapeutics, Inc., priority 2019, published 2023) one finds AC50 data, which are given here for 30 compounds.

The first test concerns TFEB. The test can be described thus: TFEB nuclear translocation assay, HeLa wt cells. Type of test: cell-based. Particulars: 2 hrs compound treatment, Table 1 does not say HeLa wt or TRPML1 KO. Put shortly: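 HeLa wt or TRPML1 KO cells treated 2 hrs with compounds at 37° C, fixed in 4% PFA, immunostained with anti-TFEB plus Alexa 488 secondary and Hoechst. Imaged at ×20, four fields/well; read-out is nuclear/perinuclear-ring TFEB intensity ratio, reported as AC50.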
Consider `C[C@@H](c1cccc(F)c1N1CCC(C(F)(F)F)CC1)S(=O)(=O)c1ccc(S(=N)(=O)N(C)C)cc1` (single isomer, unassigned) [Compound A-935], for which the AC50 is not above 2 µM.
Same read-out and setting: in the case of `CC(c1cccc(F)c1N1CCC(CN2C3CCC2COC3)CC1)S(=O)(=O)c1ccc(S(C)(=O)=O)cc1` (single isomer, unassigned) [Compound A-913, 8-((1-(2-fluoro-6-(1-((4-(methylsulfonyl)phenyl)sulfonyl)ethyl)phenyl)piperidin-4-yl)methyl)-3-oxa-8-azabicyclo[3.2.1]octane] it was not above 2 µM; in that of `CN(C)S(=O)(=O)c1ccc(S(=O)(=O)Nc2cccc(F)c2N2CCC(N3CCC4(CCOC4)C3)CC2)cc1` (single isomer, unassigned) [Compound A-910, N1-(2-(4-(2-oxa-7-azaspiro[4.4]nonan-7-yl)piperidin-1-yl)-3-fluorophenyl)-N4,N4-dimethylbenzene-1,4-disulfonamide], 2.01 to 8 µM.

Staying with this test, now noted: Homo sapiens, HeLa, 2 h, 2 hrs compound treatment, Table 1 does not say HeLa wt or TRPML1 KO.
Compound `CC(c1cccc(F)c1N1CCC(C)(C(F)F)CC1)S(=O)(=O)c1ccc(C(F)F)cc1` (single isomer, unassigned) [Compound A-963, 4-(difluoromethyl)-1-(2-(1-((4-(difluoromethyl)phenyl)sulfonyl)ethyl)-6-fluorophenyl)-4-methylpiperidine] returned an AC50 of 2.01 to 8 µM.
Same read-out and setting: next, `COC(F)(F)C(F)(F)c1ccc(S(=O)(=O)Nc2ccccc2N2CCN(C(=O)C(C)(C)C)CC2)cc1` [Compound A-569, N-{2-[4-(2,2-dimethylpropanoyl)piperazin-1-yl]phenyl}-4-(1,1,2,2-tetrafluoro-2-methoxyethyl)benzene-1-sulfonamide]: 8.01 to 9.99 µM.
In turn, `CN(C)S(=O)(=O)c1ccc(S(=O)(=O)Nc2ccccc2N2CC3CC(C2)N3c2ccc(Cl)cc2F)cc1` [Compound A-30, N4-{2-[6-(4-chloro-2-fluorophenyl)-3,6-diazabicyclo[3.1.1]heptan-3-yl]phenyl}-N1,N1-dimethylbenzene-1,4-disulfonamide] showed an AC50 not above 2 µM.
On the same count and under the same terms, in the case of `CC(C)CN1CCN(c2ccccc2C(C)S(=O)(=O)c2ccc(S(=O)(=O)N(C)C)cc2)CC1` (stereo not drawn) [Compound A-604, N,N-dimethyl-4-(1-{2-[4-(2-methylpropyl)piperazin-1-yl]phenyl}ethanesulfonyl)benzene-1-sulfonamide] it was not above 2 µM; in that of `COc1ccc(S(=O)(=O)Nc2cccnc2N2CCN(c3ncc(Cl)cc3F)CC2)cc1` [Compound A-110, N-{2-[4-(5-chloro-3-fluoropyridin-2-yl)piperazin-1-yl]pyridin-3-yl}-4-methoxybenzene-1-sulfonamide], not below 10 µM; in that of `O=S(=O)(Nc1ccccc1N1CCC(c2ccc(Cl)cc2F)CC1)c1ccc(F)cc1F` [Compound A-87, N-{2-[4-(4-chloro-2-fluorophenyl)piperidin-1-yl]phenyl}-2,4-difluorobenzene-1-sulfonamide], not below 10 µM.
The same measure, in the same setting: in the case of `CN(C)CC1(c2ccc(F)cc2F)CCN(c2ccccc2NS(=O)(=O)c2ccc(S(=O)(=O)N(C)C)cc2)CC1` [Compound A-221, N4-{2-[4-(2,4-difluorophenyl)-4-[(dimethylamino)methyl]piperidin-1-yl]phenyl}-N1,N1-dimethylbenzene-1,4-disulfonamide] it was not above 2 µM; in that of `CN(C)S(=O)(=O)c1ccc(S(=O)(=O)Nc2ccccc2N2CCN(C3CCCCC3)CC2)cc1` [Compound A-53, N4-[2-(4-cyclohexylpiperazin-1-yl)phenyl]-N1,N1-dimethylbenzene-1,4-disulfonamide], 2.01 to 8 µM; in that of `CN(C)S(=O)(=O)c1ccc(S(=O)(=O)Nc2cccc(F)c2N2CCC(CN3C[C@@H]4C[C@H]3CO4)CC2)cc1` [Compound A-785, N4-[3-fluoro-2-(4-{[(1S,4S)-2-oxa-5-azabicyclo[2.2.1]heptan-5-yl]methyl}piperidin-1-yl)phenyl]-N1,N1-dimethylbenzene-1,4-disulfonamide], not above 2 µM.
On the same count and under the same terms, next, `Cc1nn(C)c(N2CCN(c3ccc(Cl)cc3F)CC2)c1NS(=O)(=O)c1ccc(S(=O)(=O)N(C)C)cc1` [Compound A-18, N1-(5-(4-(4-chloro-2-fluorophenyl)piperazin-1-yl)-1,3-dimethyl-1H-pyrazol-4-yl)-N4,N4-dimethylbenzene-1,4-disulfonamide]: not above 2 µM; `Cc1ccc(S(=O)(=O)Nc2ccccc2N2CCC3(CC2)COC(C)(C)C3)cc1F` [Compound A-692, N-(2-{3,3-dimethyl-2-oxa-8-azaspiro[4.5]decan-8-yl}phenyl)-3-fluoro-4-methylbenzene-1-sulfonamide]: 2.01 to 8 µM; `CN1CCC2(CCN(c3ccccc3NS(=O)(=O)c3ccc(S(C)(=O)=O)cc3)CC2)c2ccccc21` [Compound A-492, 4-methanesulfonyl-N-(2-{1′-methyl-2′,3′-dihydro-1′H-spiro[piperidine-4,4′-quinolin]-1-yl}phenyl)benzene-1-sulfonamide]: not above 2 µM.
For `CC(C1CCN(c2c(F)cccc2NS(=O)(=O)c2ccc(S(=N)(=O)N(C)C)cc2)CC1)N1C[C@@H](C)O[C@@H](C)C1` (stereo partly drawn) [Compound A-872A, N-(2-(4-(1-((2S,6R)-2,6-dimethylmorpholino)ethyl)piperidin-1-yl)-3-fluorophenyl)-4-(N,N-dimethylsulfamidimidoyl)benzenesulfonamide], the AC50 was not above 2 µM.
For the compound `CN(C)S(=O)(=O)c1ccc(S(=O)(=O)Nc2nn(C)cc2C2CCN(c3ccc(Cl)cc3F)CC2)cc1` [Compound A-55, N1-(4-(1-(4-chloro-2-fluorophenyl)piperidin-4-yl)-1-methyl-1H-pyrazol-3-yl)-N4,N4-dimethylbenzene-1,4-disulfonamide], the AC50 is not above 2 µM.
Still for that read-out and setting: next, `CC(C)(C)C(=O)N1CCN(c2ccccc2NS(=O)(=O)c2ccc(C(C)(F)F)cc2)CC1` [Compound A-590, 4-(1,1-difluoroethyl)-N-{2-[4-(2,2-dimethylpropanoyl)piperazin-1-yl]phenyl}benzene-1-sulfonamide]: 2.01 to 8 µM.
Still for that read-out and setting: in the case of `Cc1cc(C)cc(CS(=O)(=O)Nc2ccccc2N2CCN(C(=O)C(C)(C)C)CC2)c1` [Compound A-500, 1-(3,5-dimethylphenyl)-N-{2-[4-(2,2-dimethylpropanoyl)piperazin-1-yl]phenyl}methanesulfonamide] it was 2.01 to 8 µM; in that of `CN(C)S(=O)(=O)c1ccc(S(=O)(=O)Nc2ccccc2N2CCN(C(=O)C3CC34CC4)CC2)cc1` (stereo not drawn) [Compound A-462, N1,N1-dimethyl-N4-[2-(4-{spiro[2.2]pentane-1-carbonyl}piperazin-1-yl)phenyl]benzene-1,4-disulfonamide], 2.01 to 8 µM; in that of `Cc1nc2ccc(S(=O)(=O)Nc3ccccc3N3CCN(C(=O)C(C)(C)C)CC3)cc2s1` [Compound A-600, N-{2-[4-(2,2-dimethylpropanoyl)piperazin-1-yl]phenyl}-2-methyl-1,3-benzothiazole-6-sulfonamide], not below 10 µM.
`Cc1cnc(N2CCC(CN3CCC(F)(F)CC3)CC2)c(NS(=O)(=O)c2ccc(S(=O)(=O)N(C)C)cc2)c1` [Compound A-952, N4-(2-{4-[(4,4-difluoropiperidin-1-yl)methyl]piperidin-1-yl}-5-methylpyridin-3-yl)-N1,N1-dimethylbenzene-1,4-disulfonamide] had a half-maximal activity concentration (AC50) not above 2 µM.
Still for that read-out and setting: in the case of `COCC1(C)CCN(c2ccccc2NS(=O)(=O)Cc2ccc(C)c(F)c2)CC1` [Compound A-646, 1-(3-fluoro-4-methylphenyl)-N-{2-[4-(methoxymethyl)-4-methylpiperidin-1-yl]phenyl}methanesulfonamide] it was 2.01 to 8 µM; in that of `CN(C)S(=O)(=O)c1ccc(S(=O)(=O)Nc2ccccc2N2CCN(C(=O)[C@@H]3C[C@@H]4CC[C@H]3O4)CC2)cc1` (racemic) [Compound A-449, rac-N1,N1-dimethyl-N4-(2-{4-[(1R,2R,4S)-7-oxabicyclo[2.2.1]heptane-2-carbonyl]piperazin-1-yl}phenyl)benzene-1,4-disulfonamide], 2.01 to 8 µM.
On the same count and under the same terms, next, `CN(C)S(=O)(=O)c1ccc(S(=O)(=O)Nc2ccccc2[C@H]2CC[C@H](c3ccc(Cl)cc3F)CC2)cc1` [Compound A-70, N1-(2-(4-(4-chloro-2-fluorophenyl)cyclohexyl)phenyl)-N4,N4-dimethylbenzene-1,4-disulfonamide]: not above 2 µM.
The compound `COCCOCCOCCOc1ccc(S(=O)(=O)Nc2ccccc2N2CCC(c3ccc(Cl)cc3F)CC2)cc1` [Compound A-588, N-{2-[4-(4-chloro-2-fluorophenyl)piperidin-1-yl]phenyl}-4-{2-[2-(2-methoxyethoxy)ethoxy]ethoxy}benzene-1-sulfonamide] had an AC50 not above 2 µM.
On the same count and under the same terms, in the case of `CC(C)(C)C(=O)N1CCN(c2ccccc2NS(=O)(=O)c2ccc(SC(F)(F)F)cc2)CC1` [Compound A-574, N-{2-[4-(2,2-dimethylpropanoyl)piperazin-1-yl]phenyl}-4-[(trifluoromethyl)sulfanyl]benzene-1-sulfonamide] it was 2.01 to 8 µM; in that of `CC(c1cccc(F)c1N1CCC(CN2C3CCC2COC3)CC1)S(=O)(=O)c1ccc2c(c1)CCC2` (stereo not drawn) [Compound A-908, 8-[(1-{2-[1-(2,3-dihydro-1H-indene-5-sulfonyl)ethyl]-6-fluorophenyl}piperidin-4-yl)methyl]-3-oxa-8-azabicyclo[3.2.1]octane], 2.01 to 8 µM; in that of `CN(C)S(=N)(=O)c1ccc(S(=O)(=O)Nc2ccccc2N2CCC(O)(c3ccc(Cl)cc3F)CC2)cc1` (stereo not drawn) [Compound A-143, 4-({2-[4-(4-chloro-2-fluorophenyl)-4-hydroxypiperidin-1-yl]phenyl}sulfamoyl)-N,N-dimethylbenzene-1-sulfonoimidamide], not above 2 µM.
The same measure, in the same setting: in the case of `Cc1ccc(S(=O)(=O)Nc2cccc(F)c2N2CCC(CN3C4CCC3COC4)CC2)cc1` [Compound A-881, N-{3-fluoro-2-[4-({3-oxa-8-azabicyclo[3.2.1]octan-8-yl}methyl)piperidin-1-yl]phenyl}-4-methylbenzene-1-sulfonamide] it was not above 2 µM.

The AC50 is the midpoint of the concentration-response curve, whichever way the signal moves. Read a high AC50 as activity only at high concentration.
